In patent US20110028566A1, “COMPOSITIONS AND PRODUCTS CONTAINING CYCLOALIPHATIC DIOL ANTIMICROBIAL AGENTS AND METHODS OF USING THE COMPOSITIONS AND PRODUCTS” (EASTMAN CHEMICAL COMPANY, priority 2009, published 2011):

Tests used:
Test in all cases: Microbial challenge testing in BPW
Format in all cases: cell-based
[1] = tested on: Aeromonas sp.; settings: BPW, w/v % in label, average of replicates
Experimental: (§1) The microorganisms used in challenge tests are given in Table 3, designated as either ATCC (American Type Culture Collection) or wild type. These wild type organisms were problematic organisms previously isolated from chemical products. In the description for each organism, the bacteria are indicated as either GN (Gram negative) or GP (Gram positive).
(§2) All of the microorganisms were grown in Tryptose Soy Broth (TSB), DIFCO™ available from Becton, Dickinson and Company, containing 1% dextrose. Aspergillus niger and Candida albicans were incubated at 22° C.±2° C. for at least 96 hours. All bacteria were incubated at 35° C.±2° C. in a humidified incubator for at least 96 hours.
(§3) The following procedure was followed to determine the amount of each challenge material (inoculum broth) required to produce a 10^8 cfu/mL challenge, which is equivalent to a final test-sample microbial concentration of 10^5 to 10^6 cfu (colony-forming units)/mL.
(§4) Using a sterile serological pipette, 1 mL of the growth from each TSB culture was transferred into tubes containing 9 mL phosphate buffer (pH 7.2) and mixed thoroughly. This process was repeated to make serial 1:10 dilutions. Then 0.1 mL of each sample and dilution was inoculated onto agar plates to produce the equivalent of a further 1:10 dilution. C. albicans and A. niger were inoculated onto SDA and bacteria were inoculated onto Plate Count Agar (PCA), DIFCO™ available from Becton, Dickinson and Company. The 0.1 mL aliquots were evenly distributed on the plates using the spread-plate technique. The spread-plate technique is performed by spreading the aliquot over the entire plate surface using a sterile spreading rod while rotating the plate with a rotary auto-plater. After the inoculum was absorbed completely, each plate was inverted and incubated (fungi at 22° C.±2° C. and bacteria at 35° C.±2° C.).
(§5) After incubation for at least 48 hours, colonies that had developed on the agar plates were counted and recorded with the corresponding dilution. If counting had to be delayed temporarily, plates were refrigerated, preferably no more than 24 hours, until they could be counted. The number of cfu/mL was determined by multiplying the count by the dilution factor for that particular plate.
(§6) Turbidity in Nepholemetric Turbidity Units (NTU) was measured for each serial dilution using the HF-Micro 100 Model Turbidimeter. For each microorganism, the plate counts were compared to the turbidity readings.
(§7) Control substrates (“broth alone”) were prepared for each microorganism separately in triplicate by adding 13.5 mL of BPW (pH 7.0) containing 1% (w/v) dextrose to each 20-mL glass tube; then adding 1.5 mL challenge material to produce a final concentration at time zero of 10^5 to 10^6 cfu/mL and a total volume of 15 mL.
(§8) Test sample substrates were prepared containing each test material (1,4-CHDM, etc) or combination of test materials at the concentrations shown in Tables 5 and 6. Sample substrates were prepared in triplicate, except those substrates containing PE or CG which were prepared in duplicate. Substrates were prepared by adding BPW containing 1% (w/v) dextrose to each 20-mL glass tube, then adding the test material in the amount appropriate to achieve the desired weight/volume percent (g/100 mL) and to obtain a total volume of BPW with dextrose and test material of 13.5 mL. Then 1.5 mL challenge material was added to produce a final concentration at time zero of 10^5 to 10^6 cfu/mL of the respective organism and a total test sample substrate volume of 15 mL.
(§9) After mixing, all challenged substrates were incubated at 35° C.±2° C. for 14 days and then at ambient room temperature.

[2] = tested on: Bacillus subtilis; settings: BPW, w/v % in label, average of replicates; for Grade code, B. subtilis, 3 Day: 3 days incubation; for Grade code, B. subtilis, 14 Day: 14 days incubation; for Grade code, B. subtilis, 30 Days: 30 days incubation
Experimental: as §1, §2, §3, §4, §5, §6, §7, §8, §9

[3] = tested on: Burkholderia cepacia; settings: BPW, w/v % in label, average of replicates; for Grade code, B. cepacia, 14 Days: 14 days incubation; for Grade code, B. cepacia, 30 Days: 30 days incubation
Experimental: as §1, §2, §3, §4, §5, §6, §7, §8, §9

[4] = tested on: Escherichia coli; settings: BPW, w/v % in label, average of replicates; for Grade code, E. coli, 3 Day: 3 days incubation; for Grade code, E. coli, 14 Day: 14 days incubation; for Grade code, E. coli, 30 Day: 30 days incubation
Experimental: as §1, §2, §3, §4, §5, §6, §7, §8, §9

[5] = tested on: Proteus vulgaris; settings: BPW, w/v % in label, average of replicates; for Grade code, P. vulgaris, 3 Days: 3 days incubation
Experimental: as §1, §2, §3, §4, §5, §6, §7, §8, §9

[6] = tested on: Pseudomonas aeruginosa; settings: BPW, w/v % in label, average of replicates; for Grade code, P. aeruginosa, 3 Days: 3 days incubation; for Grade code, P. aeruginosa, 13 Days: 13 days incubation; for Grade code, P. aeruginosa, 30 Days: 30 days incubation
Experimental: as §1, §2, §3, §4, §5, §6, §7, §8, §9

[7] = tested on: Staphylococcus aureus; settings: BPW, w/v % in label, average of replicates; for Grade code, S. aureus, 3 Day: 3 days incubation; for Grade code, S. aureus, 14 Day: 14 days incubation; for Grade code, S. aureus, 30 Day: 30 days incubation
Experimental: as §1, §2, §3, §4, §5, §6, §7, §8, §9

[8] = tested on: Staphylococcus epidermidis; settings: BPW, w/v % in label, average of replicates; for Grade code, S. epidermidis, 3 Days: 3 days incubation; for Grade code, S. epidermidis, 13 Days: 13 days incubation; for Grade code, S. epidermidis, 30 Days: 30 days incubation
Experimental: as §1, §2, §3, §4, §5, §6, §7, §8, §9

[9] = tested on: Streptococcus mutans; settings: BPW, w/v % in label, average of replicates
Experimental: as §1, §2, §3, §4, §5, §6, §7, §8, §9

CCCCCCC(O)CO (stereo not drawn) [CG, 1,2-octanediol]
Grade code, Aeromonas sp, 3 Days ([1]; 3 days incubation): 4 (1001 to 10,000 colonies (thus 10,000 cfu/mL to 100,000 cfu/mL))
Grade code, Aeromonas sp, 14 Days ([1]; 14 days incubation): 4 (1001 to 10,000 colonies (thus 10,000 cfu/mL to 100,000 cfu/mL))
Grade code, Aeromonas sp, 30 Days ([1]; 30 days incubation): 4 (1001 to 10,000 colonies (thus 10,000 cfu/mL to 100,000 cfu/mL))
Grade code, B. subtilis, 3 Day ([2]; listed as 0.25% CG): 4 (1001 to 10,000 colonies (thus 10,000 cfu/mL to 100,000 cfu/mL))
Grade code, B. subtilis, 3 Day ([2]; listed as 0.5% CG): 3 (101 to 1000 colonies (thus 1000 to 10,000 cfu/mL))
Grade code, B. subtilis, 14 Day ([2]; listed as 0.25% CG): 4 (1001 to 10,000 colonies (thus 10,000 cfu/mL to 100,000 cfu/mL))
Grade code, B. subtilis, 14 Day ([2]; listed as 0.5% CG): 1 (1 to 51 colonies counted (thus 10 to 510 cfu/mL))
Grade code, B. subtilis, 30 Days ([2]; listed as 0.25% CG): 4 (1001 to 10,000 colonies (thus 10,000 cfu/mL to 100,000 cfu/mL))
Grade code, B. subtilis, 30 Days ([2]; listed as 0.5% CG): 1 (1 to 51 colonies counted (thus 10 to 510 cfu/mL))
Grade code, B. cepacia, 3 Days ([3]; 3 days incubation): 2 (52 to 100 colonies counted (thus 520 to 1000 cfu/mL))
Grade code, B. cepacia, 14 Days ([3]; listed as 0.25% CG): 0.5
Grade code, B. cepacia, 14 Days ([3]; listed as 0.5% CG): 0 (No growth detected or <1 colony (thus <10 cfu/mL))
Grade code, B. cepacia, 30 Days ([3]; listed as 0.25% CG): 0.5
Grade code, B. cepacia, 30 Days ([3]; listed as 0.5% CG): 0 (No growth detected or <1 colony (thus <10 cfu/mL))
Grade code, E. coli, 3 Day ([4]; listed as 0.25% CG): 3 (101 to 1000 colonies (thus 1000 to 10,000 cfu/mL))
Grade code, E. coli, 3 Day ([4]; listed as 0.5% CG): 1 (1 to 51 colonies counted (thus 10 to 510 cfu/mL))
Grade code, E. coli, 14 Day ([4]; listed as 0.25% CG): 2 (52 to 100 colonies counted (thus 520 to 1000 cfu/mL))
Grade code, E. coli, 14 Day ([4]; listed as 0.5% CG): 0 (No growth detected or <1 colony (thus <10 cfu/mL))
Grade code, E. coli, 30 Day ([4]; listed as 0.25% CG): 2 (52 to 100 colonies counted (thus 520 to 1000 cfu/mL))
Grade code, E. coli, 30 Day ([4]; listed as 0.5% CG): 0 (No growth detected or <1 colony (thus <10 cfu/mL))
Grade code, P. vulgaris, 3 Days ([5]; listed as 0.25% CG): 4 (1001 to 10,000 colonies (thus 10,000 cfu/mL to 100,000 cfu/mL))
Grade code, P. vulgaris, 3 Days ([5]; listed as 0.5% CG): 3 (101 to 1000 colonies (thus 1000 to 10,000 cfu/mL))
Grade code, P. vulgaris, 13 Days ([5]; 13 days incubation): 2 (52 to 100 colonies counted (thus 520 to 1000 cfu/mL))
Grade code, P. vulgaris, 30 Day ([5]; 30 days incubation): 2 (52 to 100 colonies counted (thus 520 to 1000 cfu/mL))
Grade code, P. aeruginosa, 3 Days ([6]; listed as 0.25% CG): 2 (52 to 100 colonies counted (thus 520 to 1000 cfu/mL))
Grade code, P. aeruginosa, 3 Days ([6]; listed as 0.5% CG): 0 (No growth detected or <1 colony (thus <10 cfu/mL))
Grade code, P. aeruginosa, 13 Days ([6]; listed as 0.25% CG): 2 (52 to 100 colonies counted (thus 520 to 1000 cfu/mL))
Grade code, P. aeruginosa, 13 Days ([6]; listed as 0.5% CG): 0 (No growth detected or <1 colony (thus <10 cfu/mL))
Grade code, P. aeruginosa, 30 Days ([6]; listed as 0.25% CG): 2 (52 to 100 colonies counted (thus 520 to 1000 cfu/mL))
Grade code, P. aeruginosa, 30 Days ([6]; listed as 0.5% CG): 0 (No growth detected or <1 colony (thus <10 cfu/mL))
Grade code, S. aureus, 3 Day ([7]; listed as 0.25% CG): 4 (1001 to 10,000 colonies (thus 10,000 cfu/mL to 100,000 cfu/mL))
Grade code, S. aureus, 3 Day ([7]; listed as 0.5% CG): 3 (101 to 1000 colonies (thus 1000 to 10,000 cfu/mL))
Grade code, S. aureus, 14 Day ([7]; listed as 0.25% CG): 2 (52 to 100 colonies counted (thus 520 to 1000 cfu/mL))
Grade code, S. aureus, 14 Day ([7]; listed as 0.5% CG): 0 (No growth detected or <1 colony (thus <10 cfu/mL))
Grade code, S. aureus, 30 Day ([7]; listed as 0.25% CG): 2 (52 to 100 colonies counted (thus 520 to 1000 cfu/mL))
Grade code, S. aureus, 30 Day ([7]; listed as 0.5% CG): 0 (No growth detected or <1 colony (thus <10 cfu/mL))
Grade code, S. epidermidis, 3 Days ([8]; listed as 0.25% CG): 4 (1001 to 10,000 colonies (thus 10,000 cfu/mL to 100,000 cfu/mL))
Grade code, S. epidermidis, 3 Days ([8]; listed as 0.5% CG): 2 (52 to 100 colonies counted (thus 520 to 1000 cfu/mL))
Grade code, S. epidermidis, 13 Days ([8]; listed as 0.25% CG): 1 (1 to 51 colonies counted (thus 10 to 510 cfu/mL))
Grade code, S. epidermidis, 13 Days ([8]; listed as 0.5% CG): 0 (No growth detected or <1 colony (thus <10 cfu/mL))
Grade code, S. epidermidis, 30 Days ([8]; listed as 0.25% CG): 1 (1 to 51 colonies counted (thus 10 to 510 cfu/mL))
Grade code, S. epidermidis, 30 Days ([8]; listed as 0.5% CG): 0 (No growth detected or <1 colony (thus <10 cfu/mL))
Grade code, S. mutans, 3 Day ([9]; 3 days incubation): 0 (No growth detected or <1 colony (thus <10 cfu/mL))
Grade code, S. mutans, 13 Day ([9]; 13 days incubation): 0 (No growth detected or <1 colony (thus <10 cfu/mL))
Grade code, S. mutans, 30 Days ([9]; 30 days incubation): 0 (No growth detected or <1 colony (thus <10 cfu/mL))
